pIC50: −log10 of the molar value. Where two headings read alike, the source gives them in different places.
Assays:
Format in all cases: cell-based
ATM kinase = target: T1, ATM kinase (Homo sapiens, UniProt Q13315); assay: Assay a): ATM cellular potency (pATM Ser1981 in irradiated HT29 cells)
T1 construct: endogenous in cells; host or cells: HT29 cells (ECACC #85061109)
Experimental: Most ATM molecules in the cell are rapidly phosphorylated on this site after doses of radiation as low as 0.5 Gy, and binding of a phosphospecific antibody is detectable after the introduction of only a few DNA double-strand breaks in the cell.
The rationale of the p ATM assay is to identify inhibitors of ATM in cells. HT29 cells are incubated with test compounds for 1 hr prior to X-ray-irradiation. 1 h later the cells are fixed and stained for p ATM (Ser1981). The fluorescence is read on the arrayscan imaging platform.
The following morning compounds of Formula (I) in 100% DMSO were added to assay plates by acoustic dispensing. After 1 h incubation at 37° C. and 5% CO2, plates (up to 6 at a time) were irradiated using the X-RAD 320 instrument (PXi) with equivalent to ˜600cGy. Plates were returned to the incubator for a further 1 h. […] Then 20 μl of 0.1% Triton X100 in PBS was added and incubated for 20 minutes at r.t., to permeabalise cells. Then the plates were washed once with […] PBS, using a Biotek EL405 plate washer.
After 1 h incubation at r.t., the plates were washed three times with 50 μl/well PBS, using a Biotek EL405 plate washer, and plates were sealed and kept in PBS at 4° C. until read. Plates were read using an ArrayScan VTI instrument, using an XF53 filter with 10× objective.

mTOR = target: T2, mTOR (Homo sapiens, UniProt P42345); assay: Assay d): mTOR cellular potency (phospho-AKT Ser473 in MDA-MB-468 cells)
T2 construct: phosphorylation of the Akt protein at Ser473 (AKT lies downstream of PI3Kα in the signal transduction pathway) in the MDA-MB-468 cells; endogenous in cells; host or cells: MDA-MB-468 cells (ATCC HTB 132)
Experimental: This assay was used to measure mTOR inhibition in cells. The aim of the phospho-AKT cell based mechanism of action assay using the Acumen Explorer is to identify inhibitors of either PI3Kα or mTOR-Rictor (Rapamycin insensitive companion of mTOR). This is measured by any decrease in the phosphorylation of the Akt protein at Ser473 (AKT lies downstream of PI3Kα in the signal transduction pathway) in the MDA-MB-468 cells following treatment with compound.
MDA-MB-468 cells (human breast adenocarcinoma #ATCC HTB 132) were seeded at 1500 cells/well in 40 μl of DMEM containing 10% FBS and 1% glutamine into Greiner 384 well black flat-bottomed plates. Cell plates were incubated for 18 h in a 37° C. incubator before dosing with compounds of Formula (I) in 100% DMSO using acoustic dispensing. Compounds were dosed in a 12 point concentration range into a randomised plate map. Control wells were generated either by dosing of 100% DMSO (max signal) or addition of a reference compound (a PI3K-βinhibitor) that completely eliminated the pAKT signal (min control). Plates were incubated at 37° C. for 2 h; cells were then fixed by the addition of 10 μl of a 3.7% formaldehyde solution. After 30 minutes the plates were washed with PBS using a Tecan PW384 plate washer. Wells were blocked and cells permeabilised with the addition of 40 μl of PBS containing 0.5% Tween20 and 1% Marvel™ (dried milk powder) and incubated for 60 minutes at r.t. The plates were washed with PBS containing 0.5% (v/v) Tween20 and 20 μl rabbit anti-phospho AKT Ser473 (Cell Signalling Technologies, #3787) in same PBS-Tween+1% Marvel™ was added and incubated overnight at 4° C.
Plates were washed 3 times with PBS+0.05% Tween 20 using a Tecan PW384. 20 μl of secondary antibody Alexa Fluor 488 anti-Rabbit (Molecular Probes, #A11008) diluted in PBS+0.05% Tween20 containing 1% Marvel™ was added to each well and incubated for 1 h at r.t. Plates were washed three times as before then 20 μl PBS added to each well and plates sealed with a black plate sealer.
The plates were read on an Acumen plate reader as soon as possible, measuring green fluorescence after excitation with 488 nm laser. Using this system IC50 values were generated and quality of plates was determined by control wells. Reference compounds were run each time to monitor assay performance.

ATR kinase = target: T3, ATR kinase (Homo sapiens, UniProt Q13535); assay: Assay b): ATR cellular potency (pChk1 Ser345 in HT29 cells after 4NQO)
T3 construct: endogenous in cells; host or cells: HT29 cells (ECACC #85061109)
Experimental: ATR is a PI 3-kinase-related kinase which phosphorylates multiple substrates on serine or threonine residues in response to DNA damage during or replication blocks. Chk1, a downstream protein kinase of ATR, plays a key role in DNA damage checkpoint control. Activation of Chk1 involves phosphorylation of Ser317 and Ser345 (the latter regarded as the preferential target for phosphorylation/activation by ATR).
The following morning compound of Formula (I) in 100% DMSO were added to assay plates by acoustic dispensing. After 1 h incubation at 37° C. and 5% CO2, 40 nl of 3 mM 4NQO in 100% DMSO was added to all wells by acoustic dispensing, except minimum control wells which were left untreated with 4NQO to generate a null response control. Plates were returned to the incubator for a further 1 h. […] Then 20 μl of 0.1% Triton X100 in PBS was added and incubated for 10 minutes at r.t., to permeabalise cells. Then the plates were washed once with 50 μl/well PBS, using a Biotek EL405 plate washer.
After 2 h incubation at r.t., the plates were washed three times with 50 μl/well PBS, using a Biotek EL405 plate washer, and plates were then sealed with black plate seals until read. Plates were read using an ArrayScan VTI instrument, using an XF53 filter with 10× objective.

[1] = HT29 cells, X-ray irradiation, pATM Ser1981; Table 2; read-out: Assay a) ATM Cell IC50
[2] = MDA-MB-468 cells, phospho-AKT Ser473, 2 h; Table 2; read-out: Assay d) mTOR Cell IC50
[3] = HT29 cells, 4NQO, pChk1 Ser345; Table 2; read-out: Assay b) ATR Cell IC50
[4] = HT29 cells, X-ray irradiation, pATM Ser1981; Table 3 comparative data; read-out: Assay a) ATM Cell IC50
[5] = MDA-MB-468 cells, phospho-AKT Ser473, 2 h; Table 3 comparative data; read-out: Assay d) mTOR Cell IC50
[6] = HT29 cells, 4NQO, pChk1 Ser345; Table 3 comparative data; read-out: Assay b) ATR Cell IC50

T1 sequence (Q13315 whole entry): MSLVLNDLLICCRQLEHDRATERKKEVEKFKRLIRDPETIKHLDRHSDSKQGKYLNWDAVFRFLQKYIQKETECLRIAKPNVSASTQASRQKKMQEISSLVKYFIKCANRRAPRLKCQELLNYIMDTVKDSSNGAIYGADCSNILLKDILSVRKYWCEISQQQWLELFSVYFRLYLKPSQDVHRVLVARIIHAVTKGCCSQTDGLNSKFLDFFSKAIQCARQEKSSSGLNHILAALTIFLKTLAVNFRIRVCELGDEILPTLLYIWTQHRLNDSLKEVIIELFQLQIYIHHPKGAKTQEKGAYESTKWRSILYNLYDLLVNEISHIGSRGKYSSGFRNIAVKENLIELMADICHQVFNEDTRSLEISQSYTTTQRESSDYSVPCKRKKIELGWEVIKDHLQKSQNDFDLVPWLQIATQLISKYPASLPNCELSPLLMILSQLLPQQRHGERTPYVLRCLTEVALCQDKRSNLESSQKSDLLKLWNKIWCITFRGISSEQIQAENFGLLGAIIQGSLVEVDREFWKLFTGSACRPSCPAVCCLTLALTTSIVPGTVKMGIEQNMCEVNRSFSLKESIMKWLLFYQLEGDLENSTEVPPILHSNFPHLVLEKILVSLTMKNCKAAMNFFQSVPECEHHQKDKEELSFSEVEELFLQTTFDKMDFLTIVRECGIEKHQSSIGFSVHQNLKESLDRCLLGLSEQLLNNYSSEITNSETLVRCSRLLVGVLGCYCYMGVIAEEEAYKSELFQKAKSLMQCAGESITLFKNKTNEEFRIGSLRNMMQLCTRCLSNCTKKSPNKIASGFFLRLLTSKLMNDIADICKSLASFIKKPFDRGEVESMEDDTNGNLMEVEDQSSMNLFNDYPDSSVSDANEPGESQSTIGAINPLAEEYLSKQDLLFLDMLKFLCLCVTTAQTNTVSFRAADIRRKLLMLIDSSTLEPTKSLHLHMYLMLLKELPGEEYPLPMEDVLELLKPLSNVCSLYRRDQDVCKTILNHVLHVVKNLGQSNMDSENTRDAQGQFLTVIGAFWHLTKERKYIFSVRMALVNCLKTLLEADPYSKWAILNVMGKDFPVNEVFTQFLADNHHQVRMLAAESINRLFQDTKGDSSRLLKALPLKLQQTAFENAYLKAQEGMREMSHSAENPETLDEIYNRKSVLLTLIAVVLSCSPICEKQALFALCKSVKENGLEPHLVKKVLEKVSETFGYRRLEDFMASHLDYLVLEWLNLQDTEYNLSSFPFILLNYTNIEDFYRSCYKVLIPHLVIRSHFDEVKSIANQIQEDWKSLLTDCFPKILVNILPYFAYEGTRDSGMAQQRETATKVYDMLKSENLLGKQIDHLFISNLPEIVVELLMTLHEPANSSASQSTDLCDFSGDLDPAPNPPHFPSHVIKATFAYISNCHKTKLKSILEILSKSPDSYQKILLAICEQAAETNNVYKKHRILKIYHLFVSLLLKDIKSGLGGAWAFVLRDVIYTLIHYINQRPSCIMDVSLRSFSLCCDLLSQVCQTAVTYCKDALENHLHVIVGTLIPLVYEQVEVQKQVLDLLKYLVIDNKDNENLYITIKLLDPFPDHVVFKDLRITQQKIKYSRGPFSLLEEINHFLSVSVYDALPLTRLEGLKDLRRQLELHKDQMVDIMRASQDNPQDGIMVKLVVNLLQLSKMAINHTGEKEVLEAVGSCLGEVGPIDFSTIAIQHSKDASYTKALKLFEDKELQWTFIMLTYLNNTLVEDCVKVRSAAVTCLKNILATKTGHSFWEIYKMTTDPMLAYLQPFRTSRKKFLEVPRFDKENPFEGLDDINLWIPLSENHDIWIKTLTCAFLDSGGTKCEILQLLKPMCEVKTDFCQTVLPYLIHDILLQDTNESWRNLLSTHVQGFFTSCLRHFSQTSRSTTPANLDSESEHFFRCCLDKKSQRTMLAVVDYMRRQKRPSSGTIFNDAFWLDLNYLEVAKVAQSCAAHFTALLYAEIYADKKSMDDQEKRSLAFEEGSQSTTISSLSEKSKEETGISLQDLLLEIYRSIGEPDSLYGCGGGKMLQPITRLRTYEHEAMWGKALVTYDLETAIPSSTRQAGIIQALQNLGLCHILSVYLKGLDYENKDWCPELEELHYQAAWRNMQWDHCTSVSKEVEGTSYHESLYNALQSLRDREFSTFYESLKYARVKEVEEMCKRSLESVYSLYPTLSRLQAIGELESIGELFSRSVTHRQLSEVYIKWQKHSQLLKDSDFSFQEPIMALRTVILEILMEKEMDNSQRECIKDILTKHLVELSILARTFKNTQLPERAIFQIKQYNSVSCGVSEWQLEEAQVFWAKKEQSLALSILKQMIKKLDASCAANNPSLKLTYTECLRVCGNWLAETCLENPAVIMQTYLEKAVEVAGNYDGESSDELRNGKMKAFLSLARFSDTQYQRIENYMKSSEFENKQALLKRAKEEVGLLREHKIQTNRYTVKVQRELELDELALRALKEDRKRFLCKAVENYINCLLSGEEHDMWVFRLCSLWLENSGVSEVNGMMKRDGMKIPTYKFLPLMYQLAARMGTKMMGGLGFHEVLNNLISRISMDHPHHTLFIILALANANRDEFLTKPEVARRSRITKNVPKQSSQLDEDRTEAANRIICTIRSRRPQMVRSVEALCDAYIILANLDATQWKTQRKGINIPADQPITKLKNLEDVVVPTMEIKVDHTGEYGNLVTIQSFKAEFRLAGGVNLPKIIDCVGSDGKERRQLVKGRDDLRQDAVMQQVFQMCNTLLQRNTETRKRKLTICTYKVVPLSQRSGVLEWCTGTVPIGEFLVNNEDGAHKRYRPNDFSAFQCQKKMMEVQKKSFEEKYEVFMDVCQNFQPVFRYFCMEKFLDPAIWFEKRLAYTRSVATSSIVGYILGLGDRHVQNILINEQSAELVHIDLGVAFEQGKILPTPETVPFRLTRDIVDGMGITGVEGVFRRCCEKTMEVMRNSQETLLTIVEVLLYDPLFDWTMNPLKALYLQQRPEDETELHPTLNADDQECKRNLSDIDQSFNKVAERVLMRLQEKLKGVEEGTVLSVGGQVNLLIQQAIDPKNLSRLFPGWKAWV

| pIC50 (ATM kinase; [1]) | pIC50 (mTOR; [2]) | pIC50 (ATR kinase; [3]) | SMILES | pIC50 (ATM kinase; [4]) | pIC50 (mTOR; [5]) | pIC50 (ATR kinase; [6]) |
| --- | --- | --- | --- | --- | --- | --- |
| 9.60 | 5.44 | < 4.52 | CO[C@H]1C[C@@H](n2c(=O)n(C)c3cnc4ccc(-c5ccc(OCCCN6CCCCC6)cc5)cc4c32)C1 [Example 43, 1-(cis-3-methoxycyclobutyl)-3-methyl-8-[4-[3-(1-piperidyl)propoxy]phenyl]imidazo[4,5-c]quinolin-2-one] |  |  |  |
| 8.03 | 5.00 | < 4.52 | CN(C)CCOc1ccc(-c2ccc3ncc4c(c3c2)n(C2CCC2)c(=O)n4C)cc1 [Example 53, 1-cyclobutyl-8-[4-[2-(dimethylamino)ethoxy]phenyl]-3-methyl-imidazo[4,5-c]quinolin-2-one] |  |  |  |
| 9.19 | 5.20 | < 4.52 | CO[C@H]1C[C@@H](n2c(=O)n(C)c3cnc4ccc(-c5ccc(OCCCN(C)C)cc5)cc4c32)C1 [Example 11, 8-[4-[3-(dimethylamino)propoxy]phenyl]-1-(cis-3-methoxycyclobutyl)-3-methyl-imidazo[4,5-c]quinolin-2-one] |  |  |  |
| 10.05 | 6.06 | 4.68 | CO[C@H]1CC[C@@H](n2c(=O)n(C)c3cnc4ccc(-c5ccc(OCCCN(C)C)cc5)cc4c32)CC1 [Example 25, 8-[4-[3-(dimethylamino)propoxy]phenyl]-1-(cis-4-methoxycyclohexyl)-3-methyl-imidazo[4,5-c]quinolin-2-one] |  |  |  |
| 9.44 | 5.16 | < 4.66 | CN(C)CCCOc1ccc(-c2ccc3ncc4c(c3c2)n(C2CCOCC2)c(=O)n4C)cc1 [Example 44, 8-[4-[3-(dimethylamino)propoxy]phenyl]-3-methyl-1-tetrahydropyran-4-yl-imidazo[4,5-c]quinolin-2-one] |  |  |  |

The next lines start with the compound.

| SMILES | pIC50 (ATM kinase; [1]) | pIC50 (mTOR; [2]) | pIC50 (ATR kinase; [3]) | pIC50 (ATM kinase; [4]) | pIC50 (mTOR; [5]) | pIC50 (ATR kinase; [6]) |
| --- | --- | --- | --- | --- | --- | --- |
| CO[C@H]1CC[C@H](n2c(=O)n(C)c3cnc4ccc(-c5ccc(OCCCN6CCCC6)cc5)cc4c32)C1 (single isomer, unassigned) [Example 19, 1-[trans-3-methoxycyclopentyl]-3-methyl-8-[4-(3-pyrrolidin-1-ylpropoxy)phenyl]imidazo[4,5-c]quinolin-2-one] | 9.54 | 6.20 | 4.74 |  |  |  |
| Cn1c(=O)n(C2CCOCC2)c2c3cc(-c4cnn(CCCO)c4)ccc3ncc21 [CN102399218A Compound 60, reference compound] |  |  |  | 5.75 | 5.64 | < 7.11 |
| CN(C)CCOc1ccc(-c2cc3c(cc2F)ncc2c3n(C3CCOCC3)c(=O)n2C)cc1 [Example 56, 8-[4-[2-(Dimethylamino)ethoxy]phenyl]-7-fluoro-3-methyl-1-tetrahydropyran-4-yl-imidazo[4,5-c]quinolin-2-one] | 7.27 | 4.53 | 5.01 |  |  |  |
| CO[C@@H]1CC[C@H](n2c(=O)n(C)c3cnc4cc(F)c(-c5ccc(OCCCN(C)C)cc5)cc4c32)C1 (single isomer, unassigned) [Example 37, 8-[4-[3-(dimethylamino)propoxy]phenyl]-7-fluoro-1-[cis-3-methoxycyclopentyl]-3-methyl-imidazo[4,5-c]quinolin-2-one] | 8.53 | 5.39 | < 4.52 |  |  |  |
| CC(C)n1c(=O)n(C)c2cnc3cc(F)c(-c4ccc(OCCCN5CCC5)cc4)cc3c21 [Example 4, 8-[4-[3-(azetidin-1-yl)propoxy]phenyl]-7-fluoro-1-isopropyl-3-methyl-imidazo[4,5-c]quinolin-2-one] | 8.18 | 5.04 | < 4.52 |  |  |  |
| CN(C)CCOc1ccc(-c2ccc3ncc4c(c3c2)n(C2CCOCC2)c(=O)n4C)cc1 [Example 54, 8-[4-[2-(dimethylamino)ethoxy]phenyl]-3-methyl-1-tetrahydropyran-4-yl-imidazo[4,5-c]quinolin-2-one] | 7.95 | 5.11 | < 4.61 |  |  |  |
| CO[C@H]1C[C@@H](n2c(=O)n(C)c3cnc4ccc(-c5ccc(OCCN6CCCC6)cc5)cc4c32)C1 [Example 49, 1-(3-(cis)methoxycyclobutyl)-3-methyl-8-[4-(2-pyrrolidin-1-ylethoxy)phenyl]imidazo[4,5-c]quinolin-2-one] | 7.44 | ≤ 4.52 | < 4.52 |  |  |  |
| CO[C@H]1CC[C@H](n2c(=O)n(C)c3cnc4cc(F)c(-c5ccc(OCCCN6CCC6)cc5)cc4c32)C1 (single isomer, unassigned) [Example 23, 8-[4-[3-(azetidin-1-yl)propoxy]phenyl]-7-fluoro-1-[trans-3-methoxycyclopentyl]-3-methyl-imidazo[4,5-c]quinolin-2-one] | 8.85 | 5.25 | < 4.52 |  |  |  |
| COC(=O)N1CCC(n2c(=O)n(C)c3cnc4ccc(-c5ccc(OC)nc5)cc4c32)CC1 [CN102372711A Compound 4, reference compound] |  |  |  | 7.95 | 7.14 | 7.16 |
